This test has as its target T1, HCV genotype 1b (BK) NS3 modified with a R155K mutation (Hepatitis C virus genotype 1b, UniProt P26663, R1181K).
T1 construct: HCV genotype 1b (BK) NS3 modified with a R155K mutation
The test is described as follows: HCV NS3 protease time-resolved fluorescence (TRF) assay, NS3 protease 1b R155K Ki activity. It is filed as biochemical. The conditions noted are these: HCV genotype 1b (BK) NS3 with R155K mutation; TRF peptide substrate 100 nM; Ki derived from IC50. Put shortly: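 Pre-incubation of NS3/NS4A protease (genotype 1b BK, R155K) with inhibitor for 30 min, then 1 h at room temperature with 100 nM TRF peptide substrate in pH 7.5 HEPES buffer with 10 mM DTT. Reaction quenched with pH 5.5 MES; time-resolved fluorescence read (ex 340/em 615 nm). Ki derived from four-parameter IC50 fit via IC50=Ki(1+[S]/KM).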

pKi: −log10 of the molar value.

What is called pKi is the negative decadic logarithm of the Ki, by convention in mol/L. A higher pKi goes with a low Ki. Take `C=C[C@@H]1C[C@]1(NC(=O)[C@@H]1C[C@@H]2CN1C(=O)[C@H](C1CCCC1)NC(=O)O[C@@H]1CCC[C@H]1CCCCCn1c(nc3cc(C(F)(F)F)ccc3c1=O)O2)C(=O)NS(=O)(=O)C1CC1` [(3aR,7S,10S,12R,25aR)-7-cyclopentyl-N-((1R,2S)-1-{[(cyclopropylsulfonyl)amino]carbonyl}-2-vinylcyclopropyl)-5,8,19-trioxo-16-(trifluoromethyl)-1,2,3,3a,5,6,7,8,11,12,21,22,23,24,25,25a-hexadecahydro-10H,19H-9,12-methanocyclopenta[18,19][1,10,3,6,12]dioxatriazacyclononadecino[11,12-b]quinazoline-10-carboxamide]: the pKi was 9.30 to 10.00.

The compound `C=C[C@@H]1C[C@]1(NC(=O)[C@@H]1C[C@@H]2CN1C(=O)[C@H](C(C)(C)C)NC(=O)O[C@H]1CCC[C@@H]1CCCCCCn1c(cc3ccccc3c1=O)O2)C(=O)NS(=O)(=O)C1CC1` [(3aS,7S,10S,12R,26aS)-7-tert-butyl-N-((1R,2S)-1-{[(cyclopropylsulfonyl)amino]carbonyl}-2-vinylcyclopropyl)-5,8,19-trioxo-2,3,3a,5,6,7,8,11,12,21,22,23,24,25,26,26a-hexadecahydro-1H,10H,19H-9,12-methanocyclopenta[19,20][1,10,3,6,12]dioxatriazacycloicosino[12,11-b]isoquinoline-10-carboxamide] showed a pKi of 9.00 to 9.30.

Compound `CC[C@@H]1C[C@]1(NC(=O)[C@@H]1C[C@@H]2CN1C(=O)[C@H](C1CCCCC1)NC(=O)O[C@@H]1CCC[C@H]1C/C=C/CCn1c(cc3cc(Cl)ccc3c1=O)O2)C(=O)NS(=O)(=O)C1CC1` [(3aR,7S,10S,12R,23E,25aS)-16-chloro-7-cyclohexyl-N-((1R,2R)-1-{[(cyclopropylsulfonyl)amino]carbonyl}-2-ethylcyclopropyl)-5,8,19-trioxo-1,2,3,3a,5,6,7,8,11,12,21,22,25,25a-tetradecahydro-10H,19H-9,12-methanocyclopenta[18,19][1,10,3,6,12]dioxatriazacyclononadecino[12,11-b]isoquinoline-10-carboxamide] had a pKi of 9.30 to 10.00. The result for `CC[C@@H]1C[C@]1(NC(=O)[C@@H]1C[C@@H]2CN1C(=O)[C@H](C1CCCC1)NC(=O)O[C@@H]1CCC[C@H]1CC/C=C/Cn1c(nc3cccc(OC)c3c1=O)O2)C(=O)NS(=O)(=O)C1CC1` [(3aR,7S,10S,12R,22E,25aS)-7-cyclopentyl-N-((1R,2R)-1-{[(cyclopropylsulfonyl)amino]carbonyl}-2-ethylcyclopropyl)-18-methoxy-5,8,19-trioxo-1,2,3,3a,5,6,7,8,11,12,21,24,25,25a-tetradecahydro-10H,19H-9,12-methanocyclopenta[18,19][1,10,3,6,12]dioxatriazacyclononadecino[11,12-b]quinazoline-10-carboxamide] reads 9.30 to 10.00. The result for `C=C[C@@H]1C[C@]1(NC(=O)[C@@H]1C[C@@H]2CN1C(=O)[C@H](C1CCCC1)NC(=O)O[C@@H]1CCC[C@H]1CCCCCn1c(cc3ccc(F)cc3c1=O)O2)C(=O)NS(=O)(=O)C1CC1` [(3aR,7S,10S,12R,25aR)-7-cyclopentyl-N-((1R,2S)-1-{[(cyclopropylsulfonyl)amino]carbonyl}-2-vinylcyclopropyl)-17-fluoro-5,8,19-trioxo-1,2,3,3a,5,6,7,8,11,12,21,22,23,24,25,25a-hexadecahydro-10H,19H-9,12-methanocyclopenta[18,19][1,10,3,6,12]dioxatriazacyclononadecino[12,11-b]isoquinoline-10-carboxamide] reads over 10.00; that for `C=C[C@@H]1C[C@]1(NC(=O)[C@@H]1C[C@@H]2CN1C(=O)[C@H](C1CCCC1)NC(=O)O[C@@H]1CCC[C@H]1CC/C=C/Cn1c(nc3cc(S(C)(=O)=O)ccc3c1=O)O2)C(=O)NS(=O)(=O)C1CC1` [(3aR,7S,10S,12R,22E,25aS)-7-cyclopentyl-N-((1R,2S)-1-{[(cyclopropylsulfonyl)amino]carbonyl}-2-vinylcyclopropyl)-16-(methylsulfonyl)-5,8,19-trioxo-1,2,3,3a,5,6,7,8,11,12,21,24,25,25a-tetradecahydro-10H,19H-9,12-methanocyclopenta[18,19][1,10,3,6,12]dioxatriazacyclononadecino[11,12-b]quinazoline-10-carboxamide], over 10.00. The result for `CC[C@@H]1C[C@]1(NC(=O)[C@@H]1C[C@@H]2CN1C(=O)[C@H](C(C)(C)C)NC(=O)O[C@@H]1CCC[C@H]1CCCCCn1c(cc3cc(OC)ccc3c1=O)O2)C(=O)NS(=O)(=O)C1CC1` [(3aR,7S,10S,12R,25aR)-7-tert-butyl-N-((1R,2R)-1-{[(cyclopropylsulfonyl)amino]carbonyl}-2-ethylcyclopropyl)-16-methoxy-5,8,19-trioxo-1,2,3,3a,5,6,7,8,11,12,21,22,23,24,25,25a-hexadecahydro-10H,19H-9,12-methanocyclopenta[18,19][1,10,3,6,12]dioxatriazacyclononadecino[12,11-b]isoquinoline-10-carboxamide] reads 9.30 to 10.00; that for `C=C[C@@H]1C[C@]1(NC(=O)[C@@H]1C[C@@H]2CN1C(=O)[C@H](C1CCCC1)NC(=O)O[C@@H]1CCC[C@H]1CC/C=C/Cn1c(nc3cc(-c4ccccc4)ccc3c1=O)O2)C(=O)NS(=O)(=O)C1CC1` [(3aR,7S,10S,12R,22E,25aS)-7-cyclopentyl-N-((1R,2S)-1-{[(cyclopropylsulfonyl)amino]carbonyl}-2-vinylcyclopropyl)-5,8,19-trioxo-16-phenyl-1,2,3,3a,5,6,7,8,11,12,21,24,25,25a-tetradecahydro-10H,19H-9,12-methanocyclopenta[18,19][1,10,3,6,12]dioxatriazacyclononadecino[11,12-b]quinazoline-10-carboxamide], over 10.00; that for `C=C[C@@H]1C[C@]1(NC(=O)[C@@H]1C[C@@H]2CN1C(=O)[C@H](C1CCCC1)NC(=O)O[C@@H]1CCC[C@H]1CCCCCn1c(nc3cc(C#N)ccc3c1=O)O2)C(=O)NS(=O)(=O)C1CC1` [Example 78, (3aR,7S,10S,12R,25aR)-16-cyano-7-cyclopentyl-N-((1R,2S)-1-{[(cycyclopropylsulfonyl)amino]carbonyl}-2-vinylcyclopropyl)-5,8,19-trioxo-1,2,3,3a,5,6,7,8,11,12,21,22,23,24,25,25a-hexadecahydro-10H,19H-9,12-methanocyclopenta[18,19][1,10,3,6,12]dioxatriazacyclononadecino[11,12-b]quinazoline-10-carboxamide], 9.30 to 10.00. With `CC[C@@H]1C[C@]1(NC(=O)[C@@H]1C[C@@H]2CN1C(=O)[C@H](C1CCCC1)NC(=O)O[C@@H]1CCC[C@H]1CC/C=C/Cn1c(nc3cc(C)ccc3c1=O)O2)C(=O)NS(=O)(=O)C1CC1` [(1R,14E,18S,22R,26S,29S)-26-cyclopentyl-N-((1R,2R)-1-{[(cyclopropylsulfonyl)amino]carbonyl}-2-ethylcyclopropyl)-7-methyl-11,24,27-trioxo-2,23-dioxa-4,12,25,28-tetraazapentacyclo[26.2.1.0^3,12.0^5,10.0^18,22]hentriaconta-3,5,7,9,14-pentaene-29-carboxamide], the pKi is 9.30 to 10.00. The result for `C=C[C@@H]1C[C@]1(NC(=O)[C@@H]1C[C@@H]2CN1C(=O)[C@H](C1CCCC1)NC(=O)O[C@@H]1CCC[C@H]1CCCCCn1c(nc3c(OC)cccc3c1=O)O2)C(=O)NS(=O)(=O)C1CC1` [(3aR,7S,10S,12R,25aR)-7-cyclopentyl-N-((1R,2S)-1-{[(cyclopropylsulfonyl)amino]carbonyl}-2-vinylcyclopropyl)-15-methoxy-5,8,19-trioxo-1,2,3,3a,5,6,7,8,11,12,21,22,23,24,25,25a-hexadecahydro-10H,19H-9,12-methanocyclopenta[18,19][1,10,3,6,12]dioxatriazacyclononadecino[11,12-b]quinazoline-10-carboxamide] reads over 10.00; that for `C=C[C@@H]1C[C@]1(NC(=O)[C@@H]1C[C@@H]2CN1C(=O)[C@H](C1CCCC1)NC(=O)O[C@@H]1CCC[C@H]1CCCCCn1c(cc3cc(Cl)ccc3c1=O)O2)C(=O)NS(=O)(=O)C1CC1` [(3aR,7S,10S,12R,25aR)-16-chloro-7-cyclopentyl-N-((1R,2S)-1-{[(cyclopropylsulfonyl)amino]carbonyl}-2-vinylcyclopropyl)-5,8,19-trioxo-1,2,3,3a,5,6,7,8,11,12,21,22,23,24,25,25a-hexadecahydro-10H,19H-9,12-methanocyclopenta[18,19][1,10,3,6,12]dioxatriazacyclononadecino[12,11-b]isoquinoline-10-carboxamide], over 10.00; that for `C=C[C@@H]1C[C@]1(NC(=O)[C@@H]1C[C@@H]2CN1C(=O)[C@H](C1CCCCC1)NC(=O)O[C@@H]1CCC[C@H]1CCCCCn1c(cc3cc(Cl)ccc3c1=O)O2)C(=O)NS(=O)(=O)C1CC1` [(3aR,7S,10S,12R,25aR)-16-chloro-7-cyclohexyl-N-((1R,2S)-1-{[(cyclopropylsulfonyl)amino]carbonyl}-2-vinylcyclopropyl)-5,8,19-trioxo-1,2,3,3a,5,6,7,8,11,12,21,22,23,24,25,25a-hexadecahydro-10H,19H-9,12-methanocyclopenta[18,19][1,10,3,6,12]dioxatriazacyclononadecino[12,11-b]isoquinoline-10-carboxamide], over 10.00. With `C=C[C@@H]1C[C@]1(NC(=O)[C@@H]1C[C@@H]2CN1C(=O)[C@H](C1CCCC1)NC(=O)O[C@@H]1CCC[C@H]1CCCCCn1c(cccc1=O)O2)C(=O)NS(=O)(=O)C1CC1` [(1R,14R,18R,22S,25S)-22-cyclopentyl-N-((1R,2S)-1-{[(cyclopropylsulfonyl)amino]carbonyl}-2-vinylcyclopropyl)-7,20,23-trioxo-2,19-dioxa-8,21,24-triazatetracyclo[22.2.1.0^3,8.0^14,18]heptacosa-3,5-diene-25-carboxamide] the figure was 9.30 to 10.00.
